Source: US20260355323A1, “CEREBLON-RECRUITING BCL-XL/BCL-2 DUAL DEGRADERS” (University of Florida Research Foundation, Incorporated, priority 2022, published 2026)

How the values were obtained:
[1] = system: RS4;11 acute lymphoblastic leukemia cells; assay: Cell viability, tetrazolium-based MTS assay, RS4;11; details: Homo sapiens, RS4;11, 48 h, read-out: Anti-Cancer Activity EC50 (48 hr), RS4
Method: (§1) Acute lymphoblastic leukemia cells (MOLT-4 and RS4;11) were incubated with increasing concentrations of Bcl-xL/Bcl-2 degraders for 48 h. Cell viability was measured by tetrazolium-based MTS assay.

[2] = system: MOLT-4 acute lymphoblastic leukemia cells; assay: Cell viability, tetrazolium-based MTS assay, MOLT-4; details: Homo sapiens, MOLT-4, 48 h; read-out: Anti-Cancer Activity EC50 (48 hr), MOLT-4
Method: as §1

[3] = system: WI-38 NC; assay: Senolytic activity, cell viability (PrestoBlue HS), WI-38 NC; type: cell-based; details: Homo sapiens, 72 h
Method: (§2) WI-38 and HUVEC cells were incubated with increasing concentrations of degraders for 72 h. Cell viability was measured using PrestoBlue HS cell viability reagent.

[4] = system: WI-38 irradiation-induced senescent cells (IR-SC); assay: Senolytic activity, cell viability (PrestoBlue HS), WI-38 IR-SC; type: cell-based; details: Homo sapiens, 72 h
Method: (§3) To induce senescence in WI-38 and HUVEC, cells were subjected to x-ray irradiation at 20 Gray using X-RAD 320 biological irradiator. Following between 10 to 15 days after irradiation, senescence was induced in cells, and irradiation-induced senescent cells (IR-SC) were then used for cell viability and Western blotting tests.
as §2

[5] = system: HUVEC irradiation-induced senescent cells (IR-SC); assay: Senolytic activity, cell viability (PrestoBlue HS), HUVEC IR-SC; type: cell-based; details: Homo sapiens, 72 h
Method: as §3, §2

EC50 [1] [nM]	EC50 [2] [nM]	SMILES	EC50 [3] [nM]	EC50 [4] [nM]	EC50 [5] [nM]
< 1	< 1	C[C@@]1(CN2CCN(C(=O)CN3CCC(C#Cc4ccc5c(c4)CN(C4CCC(=O)NC4=O)C5=O)CC3)CC2)CCC(c2ccc(Cl)cc2)=C(CN2CCN(c3ccc(C(=O)NS(=O)(=O)c4ccc(N[C@H](CCN5CCCOCC5)CSc5ccccc5)c(S(=O)(=O)C(F)(F)F)c4)cc3)CC2)C1 (stereo partly drawn) [Compound 5, N-((4-(((R)-4-(1,4-oxazepan-4-yl)-1-(phenylthio)butan-2-yl)amino)-3-((trifluoromethyl)sulfonyl)phenyl)sulfonyl)-4-(4-(((4R)-4′-chloro-4-((4-(2-(4-((2-(2,6-dioxopiperidin-3-yl)-1-oxoisoindolin-5-yl)ethynyl)piperidin-1-yl)acetyl)piperazin-1-yl)methyl)-4-methyl-3,4,5,6-tetrahydro-[1,1′-biphenyl]-2-yl)methyl)piperazin-1-yl)benzamide]	> 10000	10 to 100	
< 1	< 1	C[C@@]1(CN2CCN(C(=O)CCCN3CCC(CN4CCN(c5ccc6c(c5)CN(C5CCC(=O)NC5=O)C6=O)CC4)CC3)CC2)CCC(c2ccc(Cl)cc2)=C(CN2CCN(c3ccc(C(=O)NS(=O)(=O)c4ccc(N[C@H](CCN5CCCOCC5)CSc5ccccc5)c(S(=O)(=O)C(F)(F)F)c4)cc3)CC2)C1 (stereo partly drawn) [Compound 9, N-((4-(((R)-4-(1,4-oxazepan-4-yl)-1-(phenylthio)butan-2-yl)amino)-3-((trifluoromethyl)sulfonyl)phenyl)sulfonyl)-4-(4-(((4R)-4′-chloro-4-((4-(4-(4-((4-(2-(2,6-dioxopiperidin-3-yl)-1-oxoisoindolin-5-yl)piperazin-1-yl)methyl)piperidin-1-yl)butanoyl)piperazin-1-yl)methyl)-4-methyl-3,4,5,6-tetrahydro-[1,1′-biphenyl]-2-yl)methyl)piperazin-1-yl)benzamide]	> 10000	10 to 100	
1 to 10	< 1	C[C@@]1(CN2CCN(c3ccc4c(c3)C(=O)N(C3CCC(=O)NC3=O)C4)CC2)CCC(c2ccc(Cl)cc2)=C(CN2CCN(c3ccc(C(=O)NS(=O)(=O)c4ccc(N[C@H](CCN5CCCOCC5)CSc5ccccc5)c(S(=O)(=O)C(F)(F)F)c4)cc3)CC2)C1 (stereo partly drawn) [Compound 133, N-((4-(((R)-4-(1,4-oxazepan-4-yl)-1-(phenylthio)butan-2-yl)amino)-3-((trifluoromethyl)sulfonyl)phenyl)sulfonyl)-4-(4-(((4R)-4′-chloro-4-((4-(2-(2,6-dioxopiperidin-3-yl)-3-oxoisoindolin-5-yl)piperazin-1-yl)methyl)-4-methyl-3,4,5,6-tetrahydro-[1,1′-biphenyl]-2-yl)methyl)piperazin-1-yl)benzamide]		10 to 100	< 1
< 1	< 1	CC1(CN2CCN(C(=O)CN3CCN(C(=O)CCCCNc4cccc5c4C(=O)N(C4CCC(=O)NC4=O)C5=O)CC3)CC2)CCC(c2ccc(Cl)cc2)=C(CN2CCN(c3ccc(C(=O)NS(=O)(=O)c4ccc(N[C@H](CCN5CCOCC5)CSc5ccccc5)c(S(=O)(=O)C(F)(F)F)c4)cc3)CC2)C1 (stereo partly drawn) [Compound 14, 4-(4-((4′-chloro-4-((4-(2-(4-(5-((2-(2,6-dioxopiperidin-3-yl)-1,3-dioxoisoindolin-4-yl)amino)pentanoyl)piperazin-1-yl)acetyl)piperazin-1-yl)methyl)-4-methyl-3,4,5,6-tetrahydro-[1,1′-biphenyl]-2-yl)methyl)piperazin-1-yl)-N-((4-(((R)-4-morpholino-1-(phenylthio)butan-2-yl)amino)-3-((trifluoromethyl)sulfonyl)phenyl)sulfonyl)benzamide]	> 10000	10000 to 100000	
< 1	< 1	C[C@@]1(CN2CCN(C(=O)CN3CCC(CCc4ccc5c(c4)CN(C4CCC(=O)NC4=O)C5=O)CC3)CC2)CCC(c2ccc(Cl)cc2)=C(CN2CCN(c3ccc(C(=O)NS(=O)(=O)c4ccc(N[C@H](CCN5CCCOCC5)CSc5ccccc5)c(S(=O)(=O)C(F)(F)F)c4)cc3)CC2)C1 (stereo partly drawn) [Compound 7, N-((4-(((R)-4-(1,4-oxazepan-4-yl)-1-(phenylthio)butan-2-yl)amino)-3-((trifluoromethyl)sulfonyl)phenyl)sulfonyl)-4-(4-(((4R)-4′-chloro-4-((4-(2-(4-(2-(2-(2,6-dioxopiperidin-3-yl)-1-oxoisoindolin-5-yl)ethyl)piperidin-1-yl)acetyl)piperazin-1-yl)methyl)-4-methyl-3,4,5,6-tetrahydro-[1,1′-biphenyl]-2-yl)methyl)piperazin-1-yl)benzamide]	> 10000	1 to 10	
< 1	< 1	C[C@@]1(CN2CCN(C(=O)CCCN3CCN(c4ccc5c(c4)CN(C4CCC(=O)NC4=O)C5=O)CC3)CC2)CCC(c2ccc(Cl)cc2)=C(CN2CCN(c3ccc(C(=O)NS(=O)(=O)c4ccc(N[C@H](CCN5CCCOCC5)CSc5ccccc5)c(S(=O)(=O)C(F)(F)F)c4)cc3)CC2)C1 (stereo partly drawn) [Compound 2, N-((4-(((R)-4-(1,4-oxazepan-4-yl)-1-(phenylthio)butan-2-yl)amino)-3-((trifluoromethyl)sulfonyl)phenyl)sulfonyl)-4-(4-(((4R)-4′-chloro-4-((4-(4-(4-(2-(2,6-dioxopiperidin-3-yl)-1-oxoisoindolin-5-yl)piperazin-1-yl)butanoyl)piperazin-1-yl)methyl)-4-methyl-3,4,5,6-tetrahydro-[1,1′-biphenyl]-2-yl)methyl)piperazin-1-yl)benzamide]	> 10000	1 to 10	
< 1	< 1	C[C@@]1(CN2CCN(C(=O)CN3CCC(CN4CCN(c5ccc6c(c5)CN(C5CCC(=O)NC5=O)C6=O)CC4)CC3)CC2)CCC(c2ccc(Cl)cc2)=C(CN2CCN(c3ccc(C(=O)NS(=O)(=O)c4ccc(N[C@H](CCN5CCCOCC5)CSc5ccccc5)c(S(=O)(=O)C(F)(F)F)c4)cc3)CC2)C1 (stereo partly drawn) [Compound 8, N-((4-(((R)-4-(1,4-oxazepan-4-yl)-1-(phenylthio)butan-2-yl)amino)-3-((trifluoromethyl)sulfonyl)phenyl)sulfonyl)-4-(4-(((4R)-4′-chloro-4-((4-(2-(4-((4-(2-(2,6-dioxopiperidin-3-yl)-1-oxoisoindolin-5-yl)piperazin-1-yl)methyl)piperidin-1-yl)acetyl)piperazin-1-yl)methyl)-4-methyl-3,4,5,6-tetrahydro-[1,1′-biphenyl]-2-yl)methyl)piperazin-1-yl)benzamide]	> 10000	1 to 10	
< 1	< 1	C[C@@]1(CN2CCN(C(=O)CN3CCN(CCCc4ccc5c(c4)CN(C4CCC(=O)NC4=O)C5=O)CC3)CC2)CCC(c2ccc(Cl)cc2)=C(CN2CCN(c3ccc(C(=O)NS(=O)(=O)c4ccc(N[C@H](CCN5CCCOCC5)CSc5ccccc5)c(S(=O)(=O)C(F)(F)F)c4)cc3)CC2)C1 (stereo partly drawn) [Compound 6, N-((4-(((R)-4-(1,4-oxazepan-4-yl)-1-(phenylthio)butan-2-yl)amino)-3-((trifluoromethyl)sulfonyl)phenyl)sulfonyl)-4-(4-(((4R)-4′-chloro-4-((4-(2-(4-(3-(2-(2,6-dioxopiperidin-3-yl)-1-oxoisoindolin-5-yl)propyl)piperazin-1-yl)acetyl)piperazin-1-yl)methyl)-4-methyl-3,4,5,6-tetrahydro-[1,1′-biphenyl]-2-yl)methyl)piperazin-1-yl)benzamide]	> 10000	1 to 10	
< 1	< 1	CC1(CN2CCN(C(=O)CN3CCN(C(=O)COCCNc4cccc5c4C(=O)N(C4CCC(=O)NC4=O)C5=O)CC3)CC2)CCC(c2ccc(Cl)cc2)=C(CN2CCN(c3ccc(C(=O)NS(=O)(=O)c4ccc(N[C@H](CCN5CCOCC5)CSc5ccccc5)c(S(=O)(=O)C(F)(F)F)c4)cc3)CC2)C1 (stereo partly drawn) [Compound 15, 4-(4-((4′-chloro-4-((4-(2-(4-(2-(2-((2-(2,6-dioxopiperidin-3-yl)-1,3-dioxoisoindolin-4-yl)amino)ethoxy)acetyl)piperazin-1-yl)acetyl)piperazin-1-yl)methyl)-4-methyl-3,4,5,6-tetrahydro-[1,1′-biphenyl]-2-yl)methyl)piperazin-1-yl)-N-((4-(((R)-4-morpholino-1-30 (phenylthio)butan-2-yl)amino)-3-((trifluoromethyl)sulfonyl)phenyl)sulfonyl)benzamide]	> 10000	10000 to 100000	
< 1	< 1	CC1(CN2CCN(C(=O)CN3CCN(C(=O)CNc4cccc5c4C(=O)N(C4CCC(=O)NC4=O)C5=O)CC3)CC2)CCC(c2ccc(Cl)cc2)=C(CN2CCN(c3ccc(C(=O)NS(=O)(=O)c4ccc(N[C@H](CCN5CCOCC5)CSc5ccccc5)c(S(=O)(=O)C(F)(F)F)c4)cc3)CC2)C1 (stereo partly drawn) [Compound 16, 4-(4-((4′-chloro-4-((4-(2-(4-((2-(2,6-dioxopiperidin-3-yl)-1,3-dioxoisoindolin-4-yl)glycyl)piperazin-1-yl)acetyl)piperazin-1-yl)methyl)-4-methyl-3,4,5,6-tetrahydro-[1,1′-biphenyl]-2-yl)methyl)piperazin-1-yl)-N-((4-(((R)-4-morpholino-1-(phenylthio)butan-2-yl)amino)-3-((trifluoromethyl)sulfonyl)phenyl)sulfonyl)benzamide]	> 10000	10 to 100	
